Laboratory results: patent US8039639B2, “Kinase inhibitors and methods of use thereof” (Array BioPharma Inc., priority 2006, dated 2011)
Read-outs that look alike come from different tables or passages of the source.

Experiments:
[1] = system: TNF-α production in whole blood; test: TNF-α production in LPS-treated whole blood (ELISA); format: cell-based; settings: whole blood treated with LPS, read-out: apparent IC50, inhibition of TNF-α production
RPMI 8226 = RPMI 8226 cell viability (CellTiter Blue); format: cell-based; settings: RPMI 8226, 72 hours
Method: Cell viability was then measured using CellTiter Blue (Promega) to determine IC50 values for each compound (Table 8). […] MG-132 produced an IC50 that was within historical ranges of in-house testing (Table 8).

BCR-Abl = target: T1, BCR-Abl (Homo sapiens, UniProt P00519); test: K562 immunoblot for p-Abl, pSTAT5, pCrkL; format: cell-based; settings: K562 cells, 2 hours, 37-5000 nM
T1 construct: BCR (N-terminal part, natural fusion partner of the Philadelphia-chromosome chimera); endogenous in cells; host or cells: K562; the other entry of the earlier key: BCR (P11274, Breakpoint cluster region protein)

p38 pathway = test: HeLa cell phospho-HSP27 assay, anisomycin-stimulated; format: cell-based; settings: Homo sapiens; HeLa cells, 60 min pretreatment, 1 μg/mL anisomycin 60 min; read-out: apparent IC50, p38 pathway in cells (phospho-HSP27 Ser78)
Source text: Cells were labeled with antibodies against the phosphorylated form of HSP27 (Ser78) and GAPDH as a normalization control. Cells were imaged and quantified using a LI-COR Aeriustm imager.

Abl = Abl (Homo sapiens, UniProt P00519); test: protein kinase IC50 determination (ATP at Km); format: biochemical; settings: ATP concentration at Km
Lyn = Lyn (Homo sapiens, UniProt P07948); test: protein kinase IC50 determination (ATP at Km); format: biochemical; settings: ATP concentration at Km
Chain of Lyn (P07948 whole entry, species assumed): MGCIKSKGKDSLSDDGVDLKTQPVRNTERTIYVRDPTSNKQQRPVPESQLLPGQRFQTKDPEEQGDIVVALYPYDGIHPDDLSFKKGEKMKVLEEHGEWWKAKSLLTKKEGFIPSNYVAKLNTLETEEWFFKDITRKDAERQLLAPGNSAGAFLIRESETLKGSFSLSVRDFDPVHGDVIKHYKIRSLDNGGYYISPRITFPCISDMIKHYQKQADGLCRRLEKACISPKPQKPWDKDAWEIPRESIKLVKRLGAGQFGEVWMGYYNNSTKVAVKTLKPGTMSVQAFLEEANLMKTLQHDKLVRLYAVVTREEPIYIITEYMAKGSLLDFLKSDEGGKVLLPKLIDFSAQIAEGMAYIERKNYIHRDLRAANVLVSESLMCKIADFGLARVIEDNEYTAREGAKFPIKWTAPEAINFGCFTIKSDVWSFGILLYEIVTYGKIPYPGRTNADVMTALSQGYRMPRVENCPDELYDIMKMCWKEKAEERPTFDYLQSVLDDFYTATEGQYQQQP

Pharmacokinetics in rat = format: in vivo, male Sprague-Dawley rats
Source text: Non-compartmental (model independent) methods were used to analyze the plasma concentration time-curves derived from all species as described below. Clearance (Cl), calculated percent extraction ratios (ER %), volume of distribution (Vz), time to […] (t1/2) and exposure (AUC, area under the curve) values are provided below for mouse, rat, and monkey, respectively.
2. […] Blood was sampled at the same time points as listed for the Mouse PK study.

sodium channel (site 2) = test: Off-target ligand displacement assay, panel of 28 receptors, ion channels and transporters; format: binding; settings: at 10 μM; only hit among 28 entities screened
Tie2 [2] = target: T2, Tie2 (Homo sapiens, UniProt Q02763); test: Tie2 autophosphorylation in Ang-1 stimulated HUVECs; format: cell-based; parameters: endogenous in cells; host or cells: HUVEC; settings: 200 ng/mL Ang-1 for 10 minutes
Source text: Tie2 was then immunopurified (IP) and immunoblotted with anti-phosphotyrosine (pTyr) and anti-Tie2 antibodies to assess the degree of Tie2 autophosphorylation. Lysates were immunoblotted with anti-phospho-Erk and anti-phospho-AKT (Ser473) antibodies, respectively. Signals were quantified and normalized to GAPDH as a loading control. The results were shown in an immunoblot and a graph.
Target sequence in this assay (Q02763 23-1124): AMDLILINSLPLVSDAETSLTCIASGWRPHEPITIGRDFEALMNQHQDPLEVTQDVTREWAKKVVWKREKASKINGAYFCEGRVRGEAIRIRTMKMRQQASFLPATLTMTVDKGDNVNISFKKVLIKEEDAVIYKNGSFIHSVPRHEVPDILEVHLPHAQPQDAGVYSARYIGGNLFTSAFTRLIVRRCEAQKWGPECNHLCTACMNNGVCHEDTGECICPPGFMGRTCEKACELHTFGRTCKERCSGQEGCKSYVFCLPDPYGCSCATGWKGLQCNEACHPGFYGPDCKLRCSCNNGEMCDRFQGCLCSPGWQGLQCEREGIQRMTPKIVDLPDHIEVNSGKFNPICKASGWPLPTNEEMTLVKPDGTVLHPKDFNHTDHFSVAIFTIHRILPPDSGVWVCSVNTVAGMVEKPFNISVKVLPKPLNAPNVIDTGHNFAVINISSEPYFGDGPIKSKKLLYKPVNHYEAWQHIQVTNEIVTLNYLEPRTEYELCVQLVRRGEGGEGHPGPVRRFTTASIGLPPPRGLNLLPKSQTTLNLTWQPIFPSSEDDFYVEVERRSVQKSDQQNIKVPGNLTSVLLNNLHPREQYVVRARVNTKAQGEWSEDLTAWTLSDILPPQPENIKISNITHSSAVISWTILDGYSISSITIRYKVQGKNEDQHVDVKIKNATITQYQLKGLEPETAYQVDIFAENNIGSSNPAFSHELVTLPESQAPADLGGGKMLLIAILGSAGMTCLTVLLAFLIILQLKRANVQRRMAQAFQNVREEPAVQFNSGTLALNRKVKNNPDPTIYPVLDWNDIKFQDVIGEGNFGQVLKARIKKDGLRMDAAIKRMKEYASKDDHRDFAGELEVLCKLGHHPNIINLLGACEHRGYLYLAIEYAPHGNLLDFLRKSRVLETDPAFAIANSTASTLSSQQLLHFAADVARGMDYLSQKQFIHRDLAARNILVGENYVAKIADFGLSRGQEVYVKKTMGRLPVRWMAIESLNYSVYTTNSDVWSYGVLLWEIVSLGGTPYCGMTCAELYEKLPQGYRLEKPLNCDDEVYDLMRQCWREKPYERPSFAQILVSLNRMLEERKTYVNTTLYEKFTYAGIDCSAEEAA

CYP2C19 = target: T3, CYP2C19 (Homo sapiens, UniProt P33261); test: CYP inhibition assay (LC/MS, pooled human liver microsomes); format: in vitro ADME; settings: n=1, read-out: CYPC19 IC50
T3 construct: using pooled human liver microsomes (n=1); from tissue; host or cells: pooled human liver microsomes
T3 sequence (P33261 whole entry): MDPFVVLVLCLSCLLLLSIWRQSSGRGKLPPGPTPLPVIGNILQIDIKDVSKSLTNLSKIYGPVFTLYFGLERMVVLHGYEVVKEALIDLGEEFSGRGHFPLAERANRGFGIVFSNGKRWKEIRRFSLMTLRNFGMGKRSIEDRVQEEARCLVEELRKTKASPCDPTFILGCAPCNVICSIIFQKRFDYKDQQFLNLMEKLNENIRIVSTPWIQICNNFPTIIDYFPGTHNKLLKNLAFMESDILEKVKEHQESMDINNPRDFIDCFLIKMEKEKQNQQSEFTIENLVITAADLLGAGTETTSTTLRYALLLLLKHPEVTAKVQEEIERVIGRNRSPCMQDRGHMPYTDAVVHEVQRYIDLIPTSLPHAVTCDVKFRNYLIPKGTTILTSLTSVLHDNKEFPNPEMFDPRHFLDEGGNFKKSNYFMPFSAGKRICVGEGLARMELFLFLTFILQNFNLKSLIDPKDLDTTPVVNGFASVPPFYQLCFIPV

RPMI 8226 cells = test: RPMI 8226 multiple myeloma tumor model; format: in vivo, Female Scid-beige mice
Method: Female Scid-beige mice (17-20 g), n=8 per group, were implanted with 15×10^6 RPMI 8226 cells subcutaneously on the right flank with either vehicle (20% Trappsol, 10 mL/kg, PO, BID×14) or Compound 74 (100 mg/kg active drug, PO, BID×14). Test compounds were administered by oral gavage at the indicated doses and schedules when tumors reached 200±50 mm^3 in size.

Arg = Arg (Homo sapiens, UniProt P42684); test: protein kinase IC50 determination (ATP at Km); format: biochemical; settings: ATP concentration at Km
Chain of Arg (P42684 whole entry): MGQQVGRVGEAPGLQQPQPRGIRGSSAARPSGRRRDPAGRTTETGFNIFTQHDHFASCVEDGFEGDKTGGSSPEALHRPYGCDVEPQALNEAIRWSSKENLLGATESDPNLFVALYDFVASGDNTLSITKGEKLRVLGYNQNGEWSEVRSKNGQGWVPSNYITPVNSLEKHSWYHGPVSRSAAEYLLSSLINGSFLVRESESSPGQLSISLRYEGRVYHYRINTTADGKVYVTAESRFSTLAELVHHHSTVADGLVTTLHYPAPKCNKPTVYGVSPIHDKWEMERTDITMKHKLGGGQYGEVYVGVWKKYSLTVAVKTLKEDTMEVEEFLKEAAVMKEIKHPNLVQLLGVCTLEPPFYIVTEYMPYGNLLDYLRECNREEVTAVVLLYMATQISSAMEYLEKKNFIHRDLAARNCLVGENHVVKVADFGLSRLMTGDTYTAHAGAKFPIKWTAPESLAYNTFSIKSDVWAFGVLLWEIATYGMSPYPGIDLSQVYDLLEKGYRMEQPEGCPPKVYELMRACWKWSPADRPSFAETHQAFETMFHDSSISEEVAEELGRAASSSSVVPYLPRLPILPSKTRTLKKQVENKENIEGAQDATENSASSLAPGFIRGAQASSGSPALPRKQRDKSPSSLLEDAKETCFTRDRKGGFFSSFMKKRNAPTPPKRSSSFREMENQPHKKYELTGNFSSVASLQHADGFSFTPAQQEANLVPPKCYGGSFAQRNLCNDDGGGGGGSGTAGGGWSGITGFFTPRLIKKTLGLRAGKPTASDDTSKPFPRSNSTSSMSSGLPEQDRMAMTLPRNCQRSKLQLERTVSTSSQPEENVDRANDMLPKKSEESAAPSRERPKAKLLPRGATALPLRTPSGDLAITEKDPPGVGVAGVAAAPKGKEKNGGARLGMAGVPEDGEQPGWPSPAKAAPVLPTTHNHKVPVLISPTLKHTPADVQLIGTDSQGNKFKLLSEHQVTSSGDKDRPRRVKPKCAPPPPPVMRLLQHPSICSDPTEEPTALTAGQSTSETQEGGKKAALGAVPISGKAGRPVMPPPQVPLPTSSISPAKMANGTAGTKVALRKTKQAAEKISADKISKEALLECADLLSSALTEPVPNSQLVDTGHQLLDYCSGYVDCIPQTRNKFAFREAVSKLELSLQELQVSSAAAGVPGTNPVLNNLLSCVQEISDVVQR

Fyn = Fyn (Homo sapiens, UniProt P06241); test: protein kinase IC50 determination (ATP at Km); format: biochemical; settings: ATP concentration at Km
Abl (T315I) = Abl (T315I) (Homo sapiens, UniProt P00519, T315I); test: protein kinase IC50 determination (ATP at Km); format: biochemical; settings: ATP concentration at Km
Tie2 [3] = target: T2, Tie2; test: protein kinase IC50 determination (ATP at Km); format: biochemical; settings: ATP concentration at Km
Target sequence in this assay (Q02763 23-1124, species assumed): as the sequence (Q02763 23-1124) above

[4] = system: Collagen Induced Arthritis (CIA); test: Rat model of collagen induced arthritis (CIA); format: in vivo, Female Lewis rats; settings: BID×7, dosed as prodrug Compound 74; for ED50: PO
Method: Female Lewis rats (200 g); n=8 per treatment group were injected with type II collagen/Freund's incomplete adjuvant (300 μL injection of 0.6 mg collagen, dorsal surface Day 0 and Day 6). […] ENBREL® served as a positive control. Compounds were administered on days 11-18. Ankle diameter was measured at day 11 and every day thereafter (FIG. 70). At study end paw weight and microscopic histology were determined. Both hind paws and knees were removed, hind paws weighed and then placed, with knees, in formalin. Following 1-2 days in fixative and 4-5 days in decalcifier, ankle joints and knees were processed, embedded, sectioned and stained with toluidine blue. Ankles and knees were given scores of 0-5 for inflammation, pannus formation and bone resorption.

micronucleus = test: Micronucleus assay (in vitro); format: cell-based
Method: hERG assay was performed using a standard patch clamp protocol. AMES assay (bacterial reverse mutation assay) was performed according to protocol. […] In vitro and in vivo micronucleus assays were performed according to protocol.

CYP3A4 = target: T4, CYP3A4 (Homo sapiens, UniProt P08684); test: CYP inhibition assay (LC/MS, pooled human liver microsomes); format: in vitro ADME; settings: n=1
T4 construct: using pooled human liver microsomes (n=1); from tissue; host or cells: pooled human liver microsomes
T4 sequence (P08684 whole entry): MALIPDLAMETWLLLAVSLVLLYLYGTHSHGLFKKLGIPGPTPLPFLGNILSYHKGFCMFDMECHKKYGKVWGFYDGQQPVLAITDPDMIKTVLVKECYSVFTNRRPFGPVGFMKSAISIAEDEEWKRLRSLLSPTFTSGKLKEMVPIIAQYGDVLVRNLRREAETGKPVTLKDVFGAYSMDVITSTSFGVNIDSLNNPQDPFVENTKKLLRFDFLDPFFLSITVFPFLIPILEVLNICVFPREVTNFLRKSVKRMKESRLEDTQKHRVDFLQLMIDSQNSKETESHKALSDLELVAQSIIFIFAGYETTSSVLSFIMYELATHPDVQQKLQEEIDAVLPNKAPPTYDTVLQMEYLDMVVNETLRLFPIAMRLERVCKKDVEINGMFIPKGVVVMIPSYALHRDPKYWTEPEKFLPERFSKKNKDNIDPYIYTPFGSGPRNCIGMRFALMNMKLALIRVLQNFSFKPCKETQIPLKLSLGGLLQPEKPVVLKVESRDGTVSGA

CYP2D6 = CYP2D6 (Homo sapiens, UniProt P10635); test: CYP inhibition assay (fluorescent probe, recombinant protein); format: in vitro ADME; settings: n=1
FGFR1 = FGFR1 (Homo sapiens, UniProt P11362); test: protein kinase IC50 determination (ATP at Km); format: biochemical; settings: ATP concentration at Km
Chain of FGFR1 (P11362 22-822, species assumed): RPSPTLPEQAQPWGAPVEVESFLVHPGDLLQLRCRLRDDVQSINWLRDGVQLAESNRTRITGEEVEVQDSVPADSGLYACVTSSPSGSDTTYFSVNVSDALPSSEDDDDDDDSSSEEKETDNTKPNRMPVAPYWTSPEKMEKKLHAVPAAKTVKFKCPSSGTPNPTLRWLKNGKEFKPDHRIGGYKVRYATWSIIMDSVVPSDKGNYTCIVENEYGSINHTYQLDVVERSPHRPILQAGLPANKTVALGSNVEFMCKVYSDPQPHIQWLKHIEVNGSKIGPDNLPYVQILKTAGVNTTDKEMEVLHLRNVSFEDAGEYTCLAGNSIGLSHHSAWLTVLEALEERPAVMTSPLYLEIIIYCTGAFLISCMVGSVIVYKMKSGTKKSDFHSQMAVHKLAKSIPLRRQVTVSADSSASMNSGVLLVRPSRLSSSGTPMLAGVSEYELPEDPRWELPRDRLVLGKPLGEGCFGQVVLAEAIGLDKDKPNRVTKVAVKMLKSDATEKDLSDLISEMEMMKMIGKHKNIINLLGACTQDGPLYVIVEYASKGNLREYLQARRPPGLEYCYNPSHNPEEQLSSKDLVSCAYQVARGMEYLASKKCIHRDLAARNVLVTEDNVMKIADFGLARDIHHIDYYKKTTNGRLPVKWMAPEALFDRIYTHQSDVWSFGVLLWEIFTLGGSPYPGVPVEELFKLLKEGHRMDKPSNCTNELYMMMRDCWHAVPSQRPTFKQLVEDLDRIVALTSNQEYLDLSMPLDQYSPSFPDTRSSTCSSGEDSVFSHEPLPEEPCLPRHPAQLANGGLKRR

[5] = male, Sprague-Dawley, plasma, IV: 1 mg/kg

For `Cc1ccc(-n2nc(C(C)(C)C)cc2NC(=O)NCc2cc(F)ccc2Oc2ccc3c(cnn3CCO)c2)cc1` [Compound 72, 1-(3-tert-butyl-1-p-tolyl-1H-pyrazol-5-yl)-3-(5-fluoro-2-(1-(2-hydroxyethyl)-1H-indazol-5-yloxy)benzyl)urea], the IC50 [1] was 30 nM, the IC50 (RPMI 8226; Homo sapiens, read-out: Proliferation IC50) was greater than 10000 nM and the anti-proliferative effect (RPMI 8226; over the indicated concentration range) was “not anti-proliferative”. For the same molecule, the “inhibition of autophosphorylation of BCR-Abl and phosphorylation of its substrates STAT5 and CrkL (immunoblot)” value (BCR-Abl) was “capable of inhibiting”, the IC50 (p38 pathway) was 2 nM and the IC50 (Abl) was 4 nM. For the same molecule, the IC50 (Lyn) was 25 nM, the AUC (Pharmacokinetics in rat; IV: 1 mg/kg) was “AUC = 4.7 μg-hr/kg” and the ER (Pharmacokinetics in rat; IV: 1 mg/kg) was “ER = 4.6%”. The AUC (Pharmacokinetics in rat; Oral: 30 mg/kg) was “AUC = 35 μg-hr/kg”, the F (Pharmacokinetics in rat; Oral: 30 mg/kg) was “F = 15%” and the clearance (Pharmacokinetics in rat; [5]) was 3.2 mL/min/kg. For the same molecule, the half-life (Pharmacokinetics in rat; [5]) was 3.9 h, the Vd (Pharmacokinetics in rat; male, Sprague-Dawley, plasma, IV: 1 mg/kg, read-out: Vz) was 0.048 L/kg and the Cmax (Pharmacokinetics in rat; male, Sprague-Dawley, plasma, Oral: 30 mg/kg) was 4500 ng/mL. For the same molecule, the “ligand displacement, sodium channel (site 2)” value (sodium channel (site 2)) was greater than 50%, the IC50 (Tie2 [2]) was less than 33 nM and the IC50 (CYP2C19) was 25000 nM. For the same molecule, the body weight loss (RPMI 8226 cells; RPMI 8226 tumor-bearing Scid-beige mice, throughout treatment) was “less than 10%”, the “effect on tumor growth” value (RPMI 8226 cells; RPMI 8226 tumors, 100 mg/kg PO, BID×14, dosed as Compound 74) was “statistically significant effect on tumor growth” and the “% Tumor growth inhibition (TGI)” value (RPMI 8226 cells; RPMI 8226 tumors, 100 mg/kg active drug, PO, BID×14, dosed as Compound 74) was 67%. It also gave an IC50 (Arg) of 10 nM, an IC50 (Fyn) of 41 nM and an IC50 (Abl (T315I)) of 68 nM. The IC50 (Tie2 [3]) was 1 nM, the “disease course by the end of the study” value ([4]; rat CIA, 10 mg/kg PO) was “induced disease regression” and the “parameters associated with the disease model” value ([4]; rat CIA, 0.3, 1, 3 or 10 mg/kg PO) was “dose-dependently improved all of the parameters”. For the same molecule, the ED50 ([4]; rat CIA, read-out: apparent ED50, ankle diameter) was 1.5 mg/kg, the ED50 ([4]; rat CIA, read-out: apparent ED50, histopathology) was 3 mg/kg and the “Micronucleus (in vitro)” value (micronucleus) was “Negative”. It also gave an IC50 (CYP3A4; substrate Midazolam) of roughly 8000 nM, an IC50 (CYP3A4; substrate Testosterone) of roughly 10000 nM and an IC50 (CYP2D6) of 3000 nM. The IC50 (FGFR1) was 28 nM.
